The text below walks through data of patent US4923861A, “6-(2-(2-(Substituted amino)-3-quinolinyl) ethenyl and ethyl) tetrahydro-4-hydroxypyran-2-one inhibitors of cholesterol biosynthesis” (Warner-Lambert Company, priority 1989, dated 1990).

Structures can show the parent of a compound that is named as a salt.

Assay [1] has as its system cholesterol synthesis (plasma [14C]cholesterol). In words: AICS (Acute Inhibition of Cholesterol Synthesis) screen. The note with it: cholestyramine-fed male rats, single oral gavage dose (dose not given), [1-14C]acetate i.p. one hour after dosing, blood after 50 minutes. The assay is classed as in vivo, male Sprague-Dawley rats. The method, then: Additionally, the ability of compounds of the present invention to inhibit the biosynthesis of cholesterol was also measured by a method (designated AICS (Acute Inhibition of Cholesterol Synthesis) screen) which utilizes the procedure described by A. W. Alberts, et al, Proceedings of the National Academy of Sciences, Volume 77, pages 3957-3961 (1980).
In this method male Sprague-Dawley rats (200 g body weight) previously fed 5% cholestyramine for three days were randomly divided into groups (N=5/group) and given a single dose of vehicle (controls) or compound by an oral gavage at the indicated doses. One hour after drug dosing, all rats were injected intraperitoneally with sodium[1-^14 C]acetate (18.75 μCi/rat in 0.2 ml saline). After 50 minutes, blood samples were taken, plasma obtained by centrifugation, and plasma [^14 C]cholesterol measured after saponification and extraction.

In assay [2] the test system is sterol synthesis (rat liver homogenate). The assay can be described thus: CSI (Cholesterol Synthesis Inhibition) screen. The assay is classed as biochemical. The note with it: 14C-acetate incorporation into nonsaponifiable lipid, one-hour period. Here is the method: The ability of compounds of the present invention to inhibit the biosynthesis of cholesterol was measured by a method (designated CSI (Cholesterol Synthesis Inhibition) screen) which utilizes the procedure described by R. E. Dugan et al, Archives of Biochemistry and Biophysics, Volume 152, pages 21-27 (1972). In this method, the level of HMG-CoA enzyme activity in standard laboratory rats is increased by feeding the rats a chow diet containing 5% cholestyramine for four days, after which the rats are sacrificed.
The rat livers are homogenized, and the incorporation of ^14 C-acetate into nonsaponifiable lipid by the rat liver homogenate is measured. The micromolar concentration of compound required for 50% inhibition of sterol synthesis over a one-hour period is measured, and expressed as an IC50 value.

Broadly, the IC50 is the concentration that gives 50% inhibition. The low end stands for greater potency in that assay, the high end for weaker potency in that assay.

`CN(C)c1nc2ccccc2c(-c2ccc(F)cc2)c1/C=C/[C@@H]1C[C@@H](O)CC(=O)O1` (relative stereo) [1 (lactone), [4α,6β(E)]-6-[2-[2-(Dimethylamino)-4-(4-fluorophenyl)-3-quinolinyl]ethenyl]tetrahydro-4-hydroxy-2H-pyran-2-one]: the “AICS % Inhibition” value in assay [1] came to 52%. Compound `CN(C)c1nc2ccccc2c(-c2ccc(F)cc2)c1/C=C/[C@@H](O)C[C@@H](O)CC(=O)O` (relative stereo) [[R*,S*-(E)]-7-[2-dimethylamino)-4-(4-fluorophenyl)-3-quinolinyl]-3,5-dihydroxy-6-heptenoic acid, monosodium salt] showed an IC50 in assay [2] of 47 nM. Besides, the “AICS % Inhibition” value in assay [1] was 49%.
